Reference: patent publication US7071231B2, “Naphthalene ureas as glucose uptake enhancers” (Telik, Inc., priority 1999, dated 2006)
Structures can show the parent of a compound that is named as a salt. Where two headings read alike, the source gives them in different places.

Experiments:
[1] = biological target: T1, β-kinase domain of the human insulin receptor (CKD) (Homo sapiens, UniProt P06213); test: 32P-cytoplasmic kinase domain (CKD) autophosphorylation assay; format: biochemical; conditions: phosphorylation of CKD expressed as % of the vehicle level; 10 minutes at room temperature; compound concentration not given
T1 construct: The complete β-kinase domain of the human insulin receptor (CKD) was expressed in, and purified from, baculovirus; made in house
Procedure: ^32P-cytoplasmic Kinase Domain (CKD) Autophosphorylation Assay The insulin signaling pathway is activated through stimulation of the insulin receptor. A major component of this activation is the phosphorylation of a specific portion of the receptor called the β-kinase domain. The complete β-kinase domain of the human insulin receptor (CKD) was expressed in, and purified from, baculovirus. CKD (4.0μg/ml), in a solution of 29 mM HEPES (pH 7.6), 0.05% Triton X-100, 10 mM MgCl2, 2 mM MnCl2 (50 μl final volume), was combined with 50 μM ATP, and 5 μCi ^32P-ATP (3000Ci/mmol.). A test compound, or the vehicle (dimethyl sulfoxide (DMSO)) was added to a final DMSO concentration of 1%. The mixture was incubated for 10 minutes at room temperature. The reaction was terminated by the addition of 10 μl 200 mM EDTA. A 30 μl volume was removed, mixed with 5 μl of 6× Laemmeli sodium dodecyl sulfate (SDS) treatment buffer, and heated to 94° C. for 5 minutes. A 20 μl aliquot was then run an SDS-PAGE gel. The radioactivity incorporated into the CKD band was quantified by phosphorimaging of the gel, or scintillation counting of the excised bands. The potency of a compound for increasing phosphorylation was expressed as % of the vehicle level.

[2] = system: 3T3 L1 fibroblasts; test: Glucose transport activity assay (14C-2-deoxy-D-glucose uptake); format: cell-based; conditions: EC (effective concentration) for increase in glucose transport, 14C-2-deoxy-D-glucose, 3T3 L1 cells, read-out: Concentration (μM) to reach >150% activity of vehicle control
Summary of the method: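 Differentiated 3T3 L1 adipocytes (IBMX/dexamethasone/insulin induction), serum-starved overnight, preincubated 30 min at 37 °C with compound ± insulin in pH 7.4 salt buffer, then 30 min with 5 μCi/ml 14C-2-deoxy-D-glucose. Lysate radioactivity counted; EC = concentration raising uptake above 150% of vehicle control.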

T1 sequence (P06213 980-1382 limits assumed): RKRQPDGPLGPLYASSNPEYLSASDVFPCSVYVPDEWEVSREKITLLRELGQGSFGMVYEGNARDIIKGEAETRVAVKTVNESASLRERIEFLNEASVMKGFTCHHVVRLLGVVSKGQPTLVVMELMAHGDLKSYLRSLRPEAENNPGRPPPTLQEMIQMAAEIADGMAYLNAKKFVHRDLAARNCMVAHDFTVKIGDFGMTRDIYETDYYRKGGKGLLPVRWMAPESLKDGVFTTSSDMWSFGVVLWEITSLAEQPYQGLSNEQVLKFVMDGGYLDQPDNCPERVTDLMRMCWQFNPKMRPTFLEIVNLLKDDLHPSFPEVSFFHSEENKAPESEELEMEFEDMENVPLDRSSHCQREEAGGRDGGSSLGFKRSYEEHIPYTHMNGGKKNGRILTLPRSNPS

| Compound | % Activity vs. Control [1] | EC (150% of vehicle control) ([2]; Mus musculus) | EC (150% of vehicle control) [2] |
| --- | --- | --- | --- |
| Cc1ccc(OS(=O)(=O)c2cccc(NS(=O)(=O)c3ccc4ccc(NC(=O)Nc5ccc6ccc(S(=O)(=O)Nc7cccc(S(=O)(=O)Oc8ccc(C)cc8)c7)cc6c5)cc4c3)c2)cc1 [Compound 9, 4-methylphenyl 3-[({7-[(N-{7-[({3-[(4-methylphenyl)oxysulfonyl]phenyl}amino)sulfonyl]-2-naphthyl}carbamoyl)amino]-2-naphthyl}sulfonyl)amino]benzenesulfonate] | 118% | – | – |
| NS(=O)(=O)c1cccc(NS(=O)(=O)c2ccc3ccc(NC(=O)Nc4ccc5ccc(S(=O)(=O)Nc6cccc(S(N)(=O)=O)c6)cc5c4)cc3c2)c1 [Compound 23, N-(7-{[(3-sulfamoylphenyl)amino]sulfonyl}(2-naphthyl))[(7-{[(3-sulfamoylphenyl)amino]sulfonyl}(2-naphthyl))amino]carboxamide] | 80% | 10 µM | – |
| COC(=O)c1ccc(NS(=O)(=O)c2cc(O)c3ccc(NC(=O)Nc4ccc5c(O)cc(S(=O)(=O)O)cc5c4)cc3c2)cc1 [Compound 26, 4-hydroxy-7-({[5-hydroxy-7-({[4-(methoxycarbonyl)phenyl]amino}sulfonyl)(2-naphthyl)]amino}carbonylamino)naphthalene-2-sulfonic acid] | 124% | 32 µM | – |
| COC(=O)c1ccc(NS(=O)(=O)c2cc(O)c3ccc(NC(=O)Nc4ccc5c(O)cc(S(=O)(=O)Nc6ccc(C(=O)OC)cc6)cc5c4)cc3c2)cc1 [Compound 27, methyl 4-({[4-hydroxy-7-({[5-hydroxy-7-({[4-(methoxycarbonyl)phenyl]amino}sulfonyl)(2-naphthyl)]amino}carbonylamino)-2-naphthyl]sulfonyl}amino)benzoate] | 112% | – | – |
| O=C(Nc1ccc2ccc(S(=O)(=O)Nc3cccc(C(=O)O)c3)cc2c1)Nc1ccc2ccc(S(=O)(=O)Nc3cccc(C(=O)O)c3)cc2c1 [Compound 40, 3-{[(7-{[N-(7-{[(3-carboxyphenyl)amino]sulfonyl}-2-naphthyl)carbamoyl]amino}-2-naphthyl)sulfonyl]amino}benzoic acid] | 130% | 3.2 µM | – |
| CCOC(=O)COc1cc(S(=O)(=O)O)cc2cc(NC(=O)Nc3ccc4c(OCC(=O)OCC)cc(S(=O)(=O)O)cc4c3)ccc12.N.N [Compound 95, 4-[(ethoxycarbonyl)-methoxy]-7-[({5-[(ethoxycarbonyl)methoxy]-7-sulfo(2-naphthyl)}amino)-carbonylamino]-naphthalene-2-sulfonic acid, diammonium salt] | 101% | – | – |
| O=C(O)COc1cc(S(=O)(=O)[O-])cc2cc(NC(=O)Nc3ccc4c(OCC(=O)O)cc(S(=O)(=O)[O-])cc4c3)ccc12.[Na+].[Na+] [Compound 97, 2-[6-({N-[5-(carboxymethoxy)-7-sulfo(2-naphthyl)]carbamoyl}amino)-3-sulfonaphthyloxy]acetic acid disodium salt] | 99% | – | – |
| O=C(Nc1ccc2c(O)cc(S(=O)(=O)O)cc2c1)Nc1ccc2c(OCCCS(=O)(=O)O)cc(S(=O)(=O)O)cc2c1 [Compound 102, 4-hydroxy-7-({[7-sulfo-5-(3-sulfopropoxy)(2-naphthyl)]amino}carbonylamino)naphthalene-2-sulfonic acid] | 115% | – | – |
| O=C(Nc1ccc2cc(S(=O)(=O)Nc3c(F)c(F)cc(C(=O)O)c3F)ccc2c1)Nc1ccc2cc(S(=O)(=O)Nc3c(F)c(F)cc(C(=O)O)c3F)ccc2c1 [Compound 177, 3-{[(6-{[(6-{[(3-carboxy-2,5,6-trifluorophenyl)amino]sulfonyl}(2-naphthyl))amino]carbonylamino}(2-naphthyl))sulfonyl]amino}-2,4,5-trifluorobenzoic acid] | – | > 32 µM | – |
| O=C(O)Cc1ccc(NS(=O)(=O)c2ccc3cc(NC(=O)Nc4ccc5cc(S(=O)(=O)Nc6ccc(CC(=O)O)cc6)ccc5c4)ccc3c2)cc1 [Compound 179, 2-[4-({[6-({N-[6-({[4-(carboxymethyl)phenyl]amino}sulfonyl)-2-naphthyl]carbamoyl}amino)-2-naphthyl]sulfonyl}amino)phenyl]acetic acid] | – | > 32 µM | – |
| O=C(Nc1ccc2cc(S(=O)(=O)N3CCCC(C(=O)O)C3)ccc2c1)Nc1ccc2cc(S(=O)(=O)N3CCCC(C(=O)O)C3)ccc2c1 (centres unmarked) [Compound 181, 1-({6-[({6-[(3-carboxypiperidyl)sulfonyl]-2-naphthyl}amino)carbonylamino]-2-naphthyl}sulfonyl)piperidine-3-carboxylic acid] | – | 3.2 µM | – |
| methyl 2-chloro-5-[({7-[({[7-({[4-chloro-3-(methoxycarbonyl)phenyl]amino}sulfonyl)(2-naphthyl)]amino}iminomethyl)amino](2-naphthyl)}sulfonyl)amino]benzoate [Compound 159] | – | – | 3.2 µM |

More lines, main results first:

| % Activity vs. Control [1] | Compound | EC (150% of vehicle control) ([2]; Mus musculus) | EC (150% of vehicle control) [2] |
| --- | --- | --- | --- |
| 88% | O=C(Nc1ccc2ccc(S(=O)(=O)O)cc2c1)Nc1ccc2ccc(S(=O)(=O)O)cc2c1 [Compound 3, 7-{[(7-sulfo-2-naphthyl)amino]carbonylamino}naphthalene-2-sulfonic acid disodium salt] | 3.2 µM | – |
| 96% | Cc1ccc(OS(=O)(=O)c2cccc(NS(=O)(=O)c3cc(O)c4ccc(NC(=O)Nc5ccc6c(O)cc(S(=O)(=O)Nc7cccc(S(=O)(=O)Oc8ccc(C)cc8)c7)cc6c5)cc4c3)c2)cc1 [Compound 11, 4-methylphenyl 3-[({4-hydroxy-7-[(N-{5-hydroxy-7-[({3-[(4-methylphenyl)oxysulfonyl]phenyl}amino)sulfonyl](2-naphthyl)}carbamoyl)amino]-2-naphthyl}sulfonyl)amino]benzenesulfonate] | – | – |
| 131% | O=C(Nc1ccc2ccc(S(=O)(=O)O)cc2c1)Nc1ccc2ccc(S(=O)(=O)Nc3cccc(S(=O)(=O)O)c3)cc2c1 [Compound 12, 7-{[(7-{[(3-sulfophenyl)amino]sulfonyl}-2-naphthyl)amino]carbonylamino}naphthalene-2-sulfonic acid disodium salt] | – | – |
| 110% | O=C(Nc1ccc2c(O)cc(S(=O)(=O)O)cc2c1)Nc1ccc2c(O)cc(S(=O)(=O)Nc3cccc(S(=O)(=O)O)c3)cc2c1 [Compound 14, 4-hydroxy-7-{[(5-hydroxy-7-{[(3-sulfophenyl)amino]sulfonyl}(2-naphthyl))amino]carbonylamino}naphthalene-2-sulfonic acid] | – | – |
| 144% | O=C(Nc1ccc2c(O)c(Br)c(S(=O)(=O)O)cc2c1)Nc1ccc2c(O)c(Br)c(S(=O)(=O)O)cc2c1 [Compound 16, 3-bromo-7-{[(6-bromo-5-hydroxy-7-sulfo(2-naphthyl))amino]carbonylamino}-4-hydroxynaphthalene-2-sulfonic acid disodium salt] | 32 µM | – |
| 124% | O=C(Nc1ccc2c(O)cc(S(=O)(=O)O)cc2c1)Nc1ccc2c(O)cc(S(=O)(=O)Nc3ccc(C(=O)O)cc3)cc2c1 [Compound 28, 4-{[(4-hydroxy-7-{[N-(5-hydroxy-7-sulfo(2-naphthyl))carbamoyl]amino}-2-naphthyl)sulfonyl]amino}benzoic acid] | 32 µM | – |
| 93% | COC(=O)c1cccc(NS(=O)(=O)c2ccc3ccc(NC(=O)Nc4ccc5ccc(S(=O)(=O)Nc6cccc(C(=O)OC)c6)cc5c4)cc3c2)c1 [Compound 39, methyl 3-({[7-({[7-({[3-(methoxycarbonyl)phenyl]amino}sulfonyl)-2-naphthyl]amino}carbonylamino)-2-naphthyl]sulfonyl}amino)benzoate] | 32 µM | – |
| 89% | O=C(Nc1ccc2ccc(S(=O)(=O)Nc3ccccc3)cc2c1)Nc1ccc2ccc(S(=O)(=O)Nc3ccccc3)cc2c1 [Compound 76, N-{7-[(phenylamino)sulfonyl](2-naphthyl)}({7-[(phenylamino)sulfonyl](2-naphthyl)}amino)carboxamide] | – | – |
| 79% | O=C(Nc1ccc2c(OCc3ccccc3S(=O)(=O)O)cc(S(=O)(=O)O)cc2c1)Nc1ccc2c(OCc3ccccc3S(=O)(=O)O)cc(S(=O)(=O)O)cc2c1 [Compound 100, 4-[(2-sulfophenyl)methoxy]-7-[({7-sulfo-5-[(2-sulfophenyl)methoxy](2-naphthyl)}amino)carbonylamino]naphthalene-2-sulfonic acid] | – | – |
| 104% | O=C(Nc1ccc2c(OCCCS(=O)(=O)O)cc(S(=O)(=O)O)cc2c1)Nc1ccc2c(OCCCS(=O)(=O)O)cc(S(=O)(=O)O)cc2c1 [Compound 101, 4-(3-sulfopropoxy)-7-({[7-sulfo-5-(3-sulfopropoxy)(2-naphthyl)]amino}carbonylamino)naphthalene-2-sulfonic acid] | – | – |
